# Non-standard residues stand in square brackets, D forms with d. Residues, ends and D or L forms follow the SMILES beside them.
# Test system: Herpes Simplex Virus Type-1
# Experiment: Herpes Simplex Virus Type-1 plaque inhibition assay in Vero cells
# Format: cell-based, Herpes simplex type 1 virus (HSV-1)
# Settings: Vero cells infected with 50 to 60 pfu HSV-1; peptide added after 2 hr virus incubation; concentration that inhibited growth of 50% of the input HSV-1
# Method: Vero cells were seeded into 24-we! l tissue culture plates 24 to 48 hr prior to performing the plaque assay. Herpes simplex type 1 virus (HSV-1) was diluted to 50 to 60 plaque forming units (pfu)/0.1 ml Medium 199 and 0.1 ml was added to the cells. Control cultures received 0.1 ml Medium 199 without HSV-1. Plates were incubated for 2 hr at 37° C. in 5% carbon dioxide.
# Following incubation of the cells with or without HSV-1, the medium was removed by aspiration. The peptides to be tested for antiviral activity were diluted in Dulbecco's modified Eagle's medium supplemented with 0.2% human gamma globulin, 5% fetal bovine serum, 10 units/ml penicillin and 5μg/ml streptomycin and 1 ml of the peptide solution was added to each of duplicate wells. Medium only was added to wells labelled for input virus or cell controls.
# Cells were observed by microscopy at 24 and 48 hr to identify toxicity due to the peptides. Following the incubation period, medium was removed by aspiration and the cultures were fixed using methanol and stained with 0.037% Geimsa for 45 min. The stain was removed and the plates were rinsed and allowed to air dry. The concentration of peptide that inhibited growth of 50% of the input HSV-1 (IC50) was determined for each peptide by counting the number of viral plaques present in the peptide-treated wells as compared with the input virus control wells.
# Using the plaque inhibition assay, a peptide was considered to have no antiviral effect in this assay if greater than 100 μg/ml of the peptide was required to inhibit growth of 50% of the input HSV-1.
row,SMILES,Herpes Simplex Virus Type-1 Plaque Inhibition IC50 [µg/mL]
1,CC[C@@H](C)[C@@H](NC(=O)[C@@H](CCCNC(=N)N)NC(=O)[C@@H](CS)NC(=O)[C@@H](Cc1c[nH]c2ccccc12)NC(=O)[C@@H](Cc1c[nH]c2ccccc12)NC(=O)[C@@H](CCCNC(=N)N)NC(=O)[C@@H](CCCNC(=N)N)NC(C)=O)C(N)=O [Ac-Arg-Arg-Trp-Trp-Cys-Arg-Ile-NH2],> 100
2,CC(=O)N[C@H](CCCNC(=N)N)C(=O)N[C@H](CCCNC(=N)N)C(=O)N[C@H](Cc1c[nH]c2ccccc12)C(=O)N[C@H](Cc1c[nH]c2ccccc12)C(=O)N[C@H](CS)C(=O)N[C@H](CCCNC(=N)N)C(=O)N[C@H](CC(=O)O)C(N)=O [Ac-Arg-Arg-Trp-Trp-Cys-Arg-Asp-NH2],> 100
3,CC(=O)N[C@H](CCCNC(=N)N)C(=O)N[C@H](CCCNC(=N)N)C(=O)N[C@H](Cc1c[nH]c2ccccc12)C(=O)N[C@H](Cc1c[nH]c2ccccc12)C(=O)N[C@H](CS)C(=O)N[C@H](CCCNC(=N)N)C(=O)N[C@H](CO)C(N)=O [Ac-Arg-Arg-Trp-Trp-Cys-Arg-Ser-NH2],> 100
4,CC(=O)N[C@H](CCCNC(=N)N)C(=O)N[C@H](CCCNC(=N)N)C(=O)N[C@H](Cc1c[nH]c2ccccc12)C(=O)N[C@H](Cc1c[nH]c2ccccc12)C(=O)N[C@H](CS)C(=O)N[C@H](CCCNC(=N)N)C(=O)N1CCC[C@@H]1C(N)=O [Ac-Arg-Arg-Trp-Trp-Cys-Arg-Pro-NH2],> 100
5,CC(=O)N[C@H](CCCNC(=N)N)C(=O)N[C@H](CCCNC(=N)N)C(=O)N[C@H](Cc1c[nH]c2ccccc12)C(=O)N[C@H](Cc1c[nH]c2ccccc12)C(=O)N[C@H](CS)C(=O)N[C@H](CCCNC(=N)N)C(=O)N[C@H](Cc1ccc(O)cc1)C(N)=O [Ac-Arg-Arg-Trp-Trp-Cys-Arg-Tyr-NH2],> 100
6,CC(=O)N[C@H](CCCNC(=N)N)C(=O)N[C@H](CCCNC(=N)N)C(=O)N[C@H](Cc1c[nH]c2ccccc12)C(=O)N[C@H](Cc1c[nH]c2ccccc12)C(=O)N[C@H](CS)C(=O)N[C@H](CCCNC(=N)N)C(=O)NCC(N)=O [Ac-Arg-Arg-Trp-Trp-Cys-Arg-Gly-NH2],> 100
7,CSCC[C@@H](NC(=O)[C@@H](CCCNC(=N)N)NC(=O)[C@@H](CS)NC(=O)[C@@H](Cc1c[nH]c2ccccc12)NC(=O)[C@@H](Cc1c[nH]c2ccccc12)NC(=O)[C@@H](CCCNC(=N)N)NC(=O)[C@@H](CCCNC(=N)N)NC(C)=O)C(N)=O [Ac-Arg-Arg-Trp-Trp-Cys-Arg-Met-NH2],> 50
8,CC(=O)N[C@H](CCCNC(=N)N)C(=O)N[C@H](CCCNC(=N)N)C(=O)N[C@H](Cc1c[nH]c2ccccc12)C(=O)N[C@H](Cc1c[nH]c2ccccc12)C(=O)N[C@H](CS)C(=O)N[C@H](CCCNC(=N)N)C(=O)N[C@@H](C(N)=O)C(C)C [Ac-Arg-Arg-Trp-Trp-Cys-Arg-Val-NH2],58
9,CC(=O)N[C@H](CCCNC(=N)N)C(=O)N[C@H](CCCNC(=N)N)C(=O)N[C@H](Cc1c[nH]c2ccccc12)C(=O)N[C@H](Cc1c[nH]c2ccccc12)C(=O)N[C@H](CS)C(=O)N[C@H](CCCNC(=N)N)C(=O)N[C@H](CCCNC(=N)N)C(N)=O [Ac-Arg-Arg-Trp-Trp-Cys-Arg-Arg-NH2],62
10,CC(=O)N[C@H](CCCNC(=N)N)C(=O)N[C@H](CCCNC(=N)N)C(=O)N[C@H](Cc1c[nH]c2ccccc12)C(=O)N[C@H](Cc1c[nH]c2ccccc12)C(=O)N[C@H](CS)C(=O)N[C@H](CCCNC(=N)N)C(=O)N[C@H](CCCCN)C(N)=O [Ac-Arg-Arg-Trp-Trp-Cys-Arg-Lys-NH2],50
11,CC(=O)N[C@H](CCCNC(=N)N)C(=O)N[C@H](CCCNC(=N)N)C(=O)N[C@H](Cc1c[nH]c2ccccc12)C(=O)N[C@H](Cc1c[nH]c2ccccc12)C(=O)N[C@H](CS)C(=O)N[C@H](CCCNC(=N)N)C(=O)N[C@H](C)C(N)=O [Ac-Arg-Arg-Trp-Trp-Cys-Arg-Ala-NH2],35
12,CC(=O)N[C@H](CCCNC(=N)N)C(=O)N[C@H](CCCNC(=N)N)C(=O)N[C@H](Cc1c[nH]c2ccccc12)C(=O)N[C@H](Cc1c[nH]c2ccccc12)C(=O)N[C@H](CS)C(=O)N[C@H](CCCNC(=N)N)C(=O)N[C@H](CC(C)C)C(N)=O [Ac-Arg-Arg-Trp-Trp-Cys-Arg-Leu-NH2],61
13,CC(=O)N[C@H](CCCNC(=N)N)C(=O)N[C@H](CCCNC(=N)N)C(=O)N[C@H](Cc1c[nH]c2ccccc12)C(=O)N[C@H](Cc1c[nH]c2ccccc12)C(=O)N[C@H](CS)C(=O)N[C@H](CCCNC(=N)N)C(=O)N[C@H](Cc1ccccc1)C(N)=O [Ac-Arg-Arg-Trp-Trp-Cys-Arg-Phe-NH2],59
14,CC(=O)N[C@H](CCCNC(=N)N)C(=O)N[C@H](CCCNC(=N)N)C(=O)N[C@H](Cc1c[nH]c2ccccc12)C(=O)N[C@H](Cc1c[nH]c2ccccc12)C(=O)N[C@H](CS)C(=O)N[C@H](CCCNC(=N)N)C(=O)N[C@H](CCC(N)=O)C(N)=O [Ac-Arg-Arg-Trp-Trp-Cys-Arg-Gln-NH2],37
15,CC(=O)N[C@H](CCCNC(=N)N)C(=O)N[C@H](CCCNC(=N)N)C(=O)N[C@H](Cc1c[nH]c2ccccc12)C(=O)N[C@H](Cc1c[nH]c2ccccc12)C(=O)N[C@H](CS)C(=O)N[C@H](CCCNC(=N)N)C(=O)N[C@H](Cc1c[nH]cn1)C(N)=O [Ac-Arg-Arg-Trp-Trp-Cys-Arg-His-NH2],> 100
16,CC(=O)N[C@H](CCCNC(=N)N)C(=O)N[C@H](CCCNC(=N)N)C(=O)N[C@H](Cc1c[nH]c2ccccc12)C(=O)N[C@H](Cc1c[nH]c2ccccc12)C(=O)N[C@H](CS)C(=O)N[C@H](CCCNC(=N)N)C(=O)N[C@H](Cc1c[nH]c2ccccc12)C(N)=O [Ac-Arg-Arg-Trp-Trp-Cys-Arg-Trp-NH2],37
17,CC(=O)N[C@H](CCCNC(=N)N)C(=O)N[C@H](CCCNC(=N)N)C(=O)N[C@H](Cc1c[nH]c2ccccc12)C(=O)N[C@H](Cc1c[nH]c2ccccc12)C(=O)N[C@H](CS)C(=O)N[C@H](CCCNC(=N)N)C(=O)N[C@@H](C(N)=O)[C@H](C)O [Ac-Arg-Arg-Trp-Trp-Cys-Arg-Thr-NH2],> 100
18,CC(=O)N[C@H](CCCNC(=N)N)C(=O)N[C@H](CCCNC(=N)N)C(=O)N[C@H](Cc1c[nH]c2ccccc12)C(=O)N[C@H](Cc1c[nH]c2ccccc12)C(=O)N[C@H](CS)C(=O)N[C@H](CCCNC(=N)N)C(=O)N[C@H](CCC(=O)O)C(N)=O [Ac-Arg-Arg-Trp-Trp-Cys-Arg-Glu-NH2],> 100
19,CC(=O)N[C@H](CCCNC(=N)N)C(=O)N[C@H](CCCNC(=N)N)C(=O)N[C@H](Cc1c[nH]c2ccccc12)C(=O)N[C@H](Cc1c[nH]c2ccccc12)C(=O)N[C@H](CS)C(=O)N[C@H](CCCNC(=N)N)C(=O)N[C@H](CC(N)=O)C(N)=O [Ac-Arg-Arg-Trp-Trp-Cys-Arg-Asn-NH2],85
20,CC(=O)N[C@H](CCCNC(=N)N)C(=O)N[C@H](CCCNC(=N)N)C(=O)N[C@H](Cc1c[nH]c2ccccc12)C(=O)N[C@H](Cc1c[nH]c2ccccc12)C(=O)N[C@H](CS)C(=O)N[C@H](CCCNC(=N)N)C(=O)N[C@H](CS)C(N)=O [Ac-Arg-Arg-Trp-Trp-Cys-Arg-Cys-NH2] (Ac-[dR][dR][dW][dW][dC][dR][dC]-NH2),50
